Measured values from the OPERA property sets (Mansouri et al. 2018).

Settings: not given
Work on `CCC12CCN(CC3(O)CC3)C(Cc3ccc(O)cc31)C2(C)C` (centres undefined) yielded a logP of 3.82.
Work on `CC(=O)Nc1ccn(C2OC(CO)C(O)C2O)c(=O)n1` (centres undefined) yielded a logP of -1.35.
`N#Cc1cccnc1` gave a logP of 0.36.
For `CC(C)N(CCC(CCN1CCCCC1)(C(N)=O)c1ccccc1Cl)C(C)C` (centres undefined), the logP was 4.78.
`CC(Cl)CCl` (centres undefined) gave a logP of 1.98.
Compound `Oc1c(Cl)cc(Cl)c(Cl)c1O` has a logP of 3.6.
For `CCCCCCCC=CCCCCCCC(=O)O`, the logP was 6.58.
With `OC[C@H]1NC[C@H](O)[C@@H](O)[C@@H]1O` the logP was -1.8.
With `Cc1cccn2c(=O)ccnc12` the logP was 0.79.
With `NC(=O)NCCC[C@H](N)C(=O)O` the logP was -3.19.
Compound `CCC(O)C(CC(C)N(C)C)(c1ccccc1)c1ccccc1` (centres undefined) has a logP of 4.27.
`CCCCCCCCO[C@@H]1O[C@H](CO)[C@H](O)[C@H](O)[C@H]1O` showed a logP of 1.46.
`O=C1N[C@@H](Cc2ccccc2)C(=O)N[C@H]1Cc1ccccc1` showed a logP of 1.59.
In the case of `NC(=S)c1ccc(Cl)cc1`, the logP was 2.4.
`CCCC(=O)OCC1OC(n2cc(F)c(=O)[nH]c2=O)CC1OC(=O)CCC` (centres undefined) gave a logP of 1.9.
`COc1c(O)ccc(O)c1OC` showed a logP of 0.61.
With `CC=COCC(O)Cn1ccnc1[N+](=O)[O-]` (centres undefined) the logP was 0.28.
Work on `CC(=O)N1c2ccc(C)cc2C2CN(C)CCC21` (centres undefined) yielded a logP of 1.25.
`O=c1[nH]c(=O)n(Cc2ccccc2)cc1F` gave a logP of 0.89.
For `CC(C)c1ccc(OCC(OC(=O)n2ccnc2)C(C)(C)C)cc1` (centres undefined), the logP was 4.77.
For `CC[C@H](C)C(=O)O[C@H]1CCC=C2C=C[C@H](C)[C@H](CC[C@@H]3C[C@@H](O)CC(=O)O3)[C@H]21`, the logP was 3.95.
Compound `Cc1ccc(CC#N)cc1` has a logP of 1.67.
Work on `N=C(NCC#CCC(NC(=O)C(Cc1ccc2ccccc2c1)Cc1cccc2ccccc12)C(=O)NC(CC1CCCCC1)C(O)CC(=O)NCCN1CCOCC1)N[N+](=O)[O-]` (centres undefined) yielded a logP of 4.73.
In the case of `OC1CCN(Cc2cccc(COc3ccccc3)c2)CC1`, the logP was 2.77.
For `CCOC(=O)NC1=NCC(c2ccc(CO)cc2)N1C` (centres undefined), the logP was 0.84.
`Fc1ccccc1C1=NCC(=S)N(CC(F)(F)F)c2ccc(Cl)cc21` showed a logP of 4.03.
In the case of `OCCN(CCO)CCCc1ccc(CSc2ccccc2)cc1`, the logP was 3.31.
Compound `CCCCCO` has a logP of 1.51.
`NS(=O)(=O)c1cc2c(cc1Cl)N=C(Cc1ccccc1)NS2(=O)=O` gave a logP of 1.7.
`CSc1nnc(C2CCOCC2)c(=O)n1N` gave a logP of 1.07.
Compound `O=C(O)c1cccc(Cl)n1` has a logP of 1.5.
Compound `CC(=O)n1c(=O)[nH]cc(F)c1=O` has a logP of -0.34.
Work on `O=[N+]([O-])c1ccccc1O[C@@H]1O[C@H](CO)[C@@H](O)[C@H](O)[C@H]1O` yielded a logP of -0.78.
With `CCOCCCn1ccc(=O)c(O)c1C` the logP was 0.12.
Work on `Cc1ccc(C)c(Oc2cccc(C(=O)NC(C)C)c2)c1` yielded a logP of 4.35.
For `CCOC(=O)c1ccc(OCC(OC(=O)n2ccnc2)C(C)(C)C)cc1` (centres undefined), the logP was 4.12.
For `CCCNC(=O)c1ccco1`, the logP was 1.1.
Work on `Cc1ccccc1C=O` yielded a logP of 2.26.
Compound `Cc1nnc(C(C)(C)C)c(=O)n1N` has a logP of 1.03.
`O=[N+]([O-])c1c(Cl)c(Cl)c(Cl)c(Cl)c1Cl` gave a logP of 4.64.
`CC(=O)O[C@H]1[C@@H](OC(C)=O)C[C@H](O[C@@H]2C(C)O[C@@H](O[C@H]3[C@@H](OC(C)=O)C[C@H](O[C@H]4CC[C@@]5(C)[C@H](CC[C@@H]6[C@@H]5CC[C@]5(C)[C@@H](C7=CC(=O)OC7)[C@@H](OC(C)=O)C[C@]65O)C4)O[C@@H]3C)C[C@@H]2OC(C)=O)O[C@@H]1C` (some centres undefined) gave a logP of 3.46.
For `O=C1CNC(=O)N1Cc1ccccc1`, the logP was 0.82.
`CN(C)C(=O)OCc1cccc([N+](=O)[O-])c1` gave a logP of 1.98.
In the case of `CN[C@@H](C)[C@H](O)c1ccccc1.Cl`, the logP was -2.45.
`COc1ccc2c(=O)c(C)c(-c3ccccc3)oc2c1CN(C)C` gave a logP of 3.65.
`O=[N+]([O-])c1cnc(-c2ccc(F)cc2)n1CCO` showed a logP of 1.33.
`CNC(=S)NCC#CCC(NC(=O)C(Cc1ccc2ccccc2c1)Cc1cccc2ccccc12)C(=O)NC(CC1CCCCC1)C(O)CC(=O)NCCN1CCOCC1` (centres undefined) showed a logP of 5.46.
Work on `Cc1c(O)c(=O)ccn1CCC(=O)NC(C)C` yielded a logP of -0.47.
For `Cc1ccc(C(=O)C(C)CN2CCCCC2)cc1` (centres undefined), the logP was 3.65.
Work on `CN1CC(C)(C)C(=O)c2ccccc21` yielded a logP of 2.72.
With `CC(C)c1ccc(N)cc1` the logP was 2.49.
Compound `COc1cccc(C(=O)NC2CCN(Cc3ccc(F)cc3)CC2)c1OC` has a logP of 2.87.
`CCOc1cccc(-c2nnc(S)n(C)c2=O)c1` gave a logP of 2.67.
In the case of `CCCN(C)C(=O)c1cccc(Oc2ccccc2)c1`, the logP was 3.44.
Compound `Cc1ccc(C)c(C)c1C` has a logP of 4.
For `CCC(CC)(C(=O)NC(N)=S)C(=O)OC`, the logP was 1.82.
In the case of `Nc1cc(Cl)ccc1Cl`, the logP was 2.75.
With `Cc1ccccc1C(=O)C(C)CN1CCCCC1` (centres undefined) the logP was 3.69.
For `COc1c(Cl)cc(Cl)c(O)c1C(=O)NCC1CCCN1CCF` (centres undefined), the logP was 3.66.
Work on `O=C(OCC1OC(n2cc(I)c(=O)[nH]c2=O)CC1O)c1ccc([N+](=O)[O-])cc1` (centres undefined) yielded a logP of 1.24.
In the case of `O=c1[nH]c(=O)n(C2OC(CO)CC2F)cc1F` (centres undefined), the logP was -0.72.
`CCC1(c2ccccc2)C(=O)NC(=O)N1S(=O)(=O)c1ccccc1` (centres undefined) gave a logP of 2.44.
For `CCOC(=O)NC1=NCC(c2cccc(F)c2)N1C` (centres undefined), the logP was 1.84.
With `CN(C)CCN1C(=O)c2ccccc2Nc2cc(Cl)ccc21` the logP was 3.73.
`CCC(=O)O[C@]1(C(=O)CCl)[C@@H](C)C[C@H]2[C@@H]3CCC4=CC(=O)C=C[C@]4(C)[C@@]3(F)[C@@H](O)C[C@@]21C` showed a logP of 3.5.
Compound `Cc1c(O)c(=O)ccn1C(C)C` has a logP of 0.05.
Work on `CNC(=S)NCCCCC(NC(=O)C(CC(=O)N1CCOCC1)Cc1cccc2ccccc12)C(=O)NC(CC1CCCCC1)C(O)CC(=O)NCCN1CCOCC1` (centres undefined) yielded a logP of 1.68.
`CCCCN(C)C(=O)c1cccc(Oc2ccccc2)c1` showed a logP of 3.89.
Work on `CN1CC(=O)N(c2ccccc2)C1=O` yielded a logP of 0.14.
`Clc1ccc(-c2c(Cl)ccc(Cl)c2Cl)cc1Cl` showed a logP of 6.22.
`CCCc1c2oc(C(=O)O)cc(=O)c2cc2c(=O)cc(C(=O)O)n(CC)c12` gave a logP of 2.22.
Compound `COc1ccc(COCc2cccc(CN3CCOCC3)c2)cc1` has a logP of 2.83.
`Cc1ccccc1C(=O)CCN1CCCCC1` showed a logP of 3.54.
For `O=C1CC2(CCCC2)C(=O)N1O`, the logP was -0.26.
Work on `CNc1nnc(-c2cc(Cl)cc(Cl)c2)c(=O)n1N` yielded a logP of 1.91.
`CC1(C)S[C@@H]2[C@H](NC(=O)[C@H](N)c3ccccc3)C(=O)N2[C@H]1C(=O)O` gave a logP of 1.35.
`CCC(C(=O)OCc1ccc(C)cc1)C(CO)Cc1cncn1C` (centres undefined) showed a logP of 2.46.
In the case of `COC(=O)NC1=NCC(c2ccc(Cl)cc2)N1C` (centres undefined), the logP was 2.17.
In the case of `CC(=O)n1cc(CC(NC(=O)CC2NC(=O)C3C4CCC(CC4)N3C2=O)C(=O)NC(Cc2ccccc2)C(=O)N(C)Cc2ccccc2)c2ccccc21` (centres undefined), the logP was 3.69.
For `CC1(C)S[C@@H]2[C@H](NC(=O)[C@H](N)c3ccc(O)cc3)C(=O)N2[C@H]1C(=O)O`, the logP was 0.87.
With `CC1=NS(=O)(=O)c2cc(S(N)(=O)=O)c(Cl)cc2N1` the logP was 0.03.
Work on `O=c1[nH]c(=O)n(C2OC(CO)CC2F)cc1Cl` (centres undefined) yielded a logP of -0.28.
Work on `COc1ccc2cc(C(C)C(=O)Oc3ccccc3)ccc2c1` (centres undefined) yielded a logP of 5.17.
With `CCN(CC)C(=O)c1ccccc1C` the logP was 2.02.
`CC(C)(C)C(COc1ccc(Br)cc1)OC(=O)n1ccnc1` (centres undefined) showed a logP of 4.37.
`CCNc1nc(C)c(C(=O)CCN(CC)CC)s1` gave a logP of 2.72.
In the case of `Cc1c(O)ccc(O)c1C`, the logP was 1.36.
In the case of `CNC(=O)Oc1cc(C)ccc1C(C)C`, the logP was 2.84.
`CC(C)c1ncc([N+](=O)[O-])[nH]1` gave a logP of 0.9.
`Cn1c(S)nnc(-c2ccc(OC(F)(F)F)c(Cl)c2)c1=O` gave a logP of 3.61.
For `Cc1nn(-c2ccccc2)c(Nc2ccc([N+](=O)[O-])cc2)c1[N+](=O)[O-]`, the logP was 2.78.
Work on `CC(C(=O)O)N(C(=O)c1ccccc1)c1ccc(F)c(Cl)c1` (centres undefined) yielded a logP of 2.9.
Work on `CCOC(=O)c1cnc2n(c1=O)CCCC2` yielded a logP of 0.15.
For `O=C(Nc1ncnc2c1ncn2[C@@H]1O[C@H](CO)C[C@@H]1F)c1ccccc1`, the logP was 0.73.
`CC(C)(C)C(COc1ccc(C#N)cc1)OC(=O)n1ccnc1` (centres undefined) gave a logP of 3.15.
`O=C(O)CCCOc1cccc2ccccc12` gave a logP of 3.5.
In the case of `CCOC(=O)OCn1c(=O)[nH]cc(F)c1=O`, the logP was 0.15.
Compound `CCCN1CCOC2c3cc(O)ccc3OCC21` (centres undefined) has a logP of 1.97.
In the case of `CCC(C(=O)OCc1ccccc1)C(COC(=O)Cc1ccccc1)Cc1cncn1C` (centres undefined), the logP was 4.
Work on `O=C(OC[C@H]1O[C@@H](n2cc(I)c(=O)[nH]c2=O)C[C@@H]1O)c1ccccc1` yielded a logP of 1.4.
Compound `CCCCCCn1ccc(=O)c(O)c1CC` has a logP of 2.28.
For `CC(=O)O.CCCCCCCCCCCCNC(=N)N`, the logP was 1.15.
For `CN(C)C=C1OC(=O)C(C#N)=C1c1ccccc1`, the logP was 1.07.
With `CCOP(=O)(O)Cc1ccc(S(C)(=O)=O)cc1` the logP was -0.4.
With `O=C1CN=C(c2ccccn2)c2cc(Br)ccc2N1` the logP was 2.05.
Work on `C=CC12COC(=O)C(=C)C1C1OC(=O)C(=C)C1C(OC(=O)C(=C)C)C2` (centres undefined) yielded a logP of 1.56.
In the case of `CCOCCCn1ccc(=O)c(O)c1CC`, the logP was 0.72.
For `CN(C)C(=O)n1cc(F)c(=O)[nH]c1=O`, the logP was -0.37.
`CC(C)c1ccc(C2C(=O)c3ccccc3C2=O)cc1` showed a logP of 4.43.
Compound `CSc1ccc(OCc2ncc([N+](=O)[O-])n2C)cc1` has a logP of 2.5.
Work on `Nc1ccc(C(=O)O)cc1F` yielded a logP of 1.41.
`CCn1cc(C(=O)O)c(=O)c2cc(F)c(N3CCNCC3)nc21` gave a logP of -0.2.
`C=C[C@H]1CN2CCC1C[C@@H]2[C@@H](O)c1ccnc2ccccc12` (some centres undefined) showed a logP of 2.68.
`Nc1c(Cl)cc(Cl)cc1Cl` gave a logP of 3.52.
In the case of `O=C1CN=C(c2ccccc2)c2cc(Cl)ccc2N1CC(F)(F)F`, the logP was 3.97.
In the case of `Cc1ccn2c(=O)ccnc2c1`, the logP was 0.56.
In the case of `CCOc1cccc(-c2nnc(C)n(NC)c2=O)c1`, the logP was 1.91.
In the case of `NS(=O)(=O)c1ccc(S(=O)(=O)CCCO)c([N+](=O)[O-])c1`, the logP was -0.05.
`CN1CC(O)CN(C)C1=Nc1ncc([N+](=O)[O-])s1` (centres undefined) showed a logP of 0.16.
`Cc1ccc(C)c(Oc2cccc(C(=O)NC(C)(C)C)c2)c1` showed a logP of 4.78.
For `CC(C)(C)C(COc1ccc([N+](=O)[O-])cc1)OC(=O)n1ccnc1` (centres undefined), the logP was 3.35.
Compound `CC1=C(C)C(=O)C(Cc2cccnc2)=C(C)C1=O` has a logP of 2.55.
Work on `O=C(Cc1nc(I)c([N+](=O)[O-])[nH]1)NCc1cccnc1` yielded a logP of 0.88.

Same assay, conditions: pH 7.4
`COc1ccc2c3c1O[C@H]1[C@@H](O)C=C[C@H]4[C@@H](C2)N(C)CC[C@@]341.O=P(O)(O)O` gave a logD of -1.4.
